{"source": "patent US20120070506A1", "about": "“Animal Treatment” (BOMAC RESEARCH LIMITED, priority 2009, published 2012)", "origin": "cited, not measured here", "test_system": "animals", "conditions": "veterinary treatment", "data": [{"smiles": "CC(C(=O)O)c1ccc2c(c1)[nH]c1ccc(Cl)cc12", "note": "(stereo not drawn) [carprofen, 6-chloro-alpha-methyl-9H-carbozole-2-acetic acid]", "values": [{"measurement": "known adverse effect", "result": "hepatotoxicity (acute hepatic necrosis) or other liver damage"}]}]}
